Laboratory results reported in US6638973B2, “Taxane formulations” (FSU Research Foundation, Inc., priority 2000, dated 2003).
pIC50: −log10 of the molar value. Like-named read-outs stand apart in the source and are kept apart here.

Test system: HCT116 cells
Assay: In vitro cytotoxicity measured by the cell colony formation assay
Type: cell-based
Settings: colonies counted after 7 days, read-out: IN VITRO ID 50 (nm) HCT116
Procedure, shortened: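 Colony-forming survival was scored 7 days after a 72 h, 37 °C compound exposure followed by washout into fresh medium.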

[1] = HCT116 colony formation, 72 h drug incubation, Example 5, C-7 ester/C-10 hydroxy taxanes
[2] = HCT116 colony formation, 72 h drug incubation, Example 10, C-10 ester/C-7 hydroxy taxanes
[3] = HCT116 colony formation, 72 h drug incubation, Example 15, C-7 substituted acetate/C-10 hydroxy taxanes
[4] = HCT116 cells, 72 h incubation with drug, ID50 = drug concentration producing 50% inhibition of colony formation

Work on `CCCC(=O)O[C@H]1C[C@H]2OC[C@@]2(OC(C)=O)C2[C@H](OC(=O)c3ccccc3)[C@]3(O)C[C@H](OC(=O)[C@H](O)[C@@H](NC(=O)c4ccco4)c4cccs4)C(C)=C([C@@H](O)C(=O)[C@@]21C)C3(C)C` (some centres unmarked) [Compound 4219] yielded a pIC50 [1] of 7.54.

For `CCCC(=O)O[C@H]1C[C@H]2OC[C@@]2(OC(C)=O)C2[C@H](OC(=O)c3ccccc3)[C@]3(O)C[C@H](OC(=O)[C@H](O)[C@H](C=C(C)C)NC(=O)OC(C)(C)C)C(C)=C([C@@H](O)C(=O)[C@@]21C)C3(C)C` (some centres unmarked) [Compound 4406], the pIC50 [1] was > 9.00.

For `CCCC(=O)O[C@H]1C(=O)[C@@]2(C)C([C@H](OC(=O)c3ccccc3)[C@]3(O)C[C@H](OC(=O)[C@H](O)[C@@H](NC(=O)c4ccccc4)C4CC4)C(C)=C1C3(C)C)[C@]1(OC(C)=O)CO[C@@H]1C[C@@H]2O` (some centres unmarked) [Compound 3482], the pIC50 [2] was > 9.00.

`COCC(=O)O[C@H]1C[C@H]2OC[C@@]2(OC(C)=O)C2[C@H](OC(=O)c3ccccc3)[C@]3(O)C[C@H](OC(=O)[C@H](O)[C@@H](NC(=O)C=C(C)C)c4ccco4)C(C)=C([C@@H](O)C(=O)[C@@]21C)C3(C)C` (some centres unmarked) [Compound 5474] was tested, and the pIC50 [3] was > 9.00.

In the case of `CCCC(=O)N[C@@H](c1cccs1)[C@@H](O)C(=O)O[C@H]1C[C@@]2(O)[C@@H](OC(=O)c3ccccc3)C3[C@](C)(C(=O)[C@H](OC(=O)CCC)C(=C1C)C2(C)C)[C@@H](O)C[C@H]1OC[C@@]31OC(C)=O` (some centres unmarked) [Compound 3148], the pIC50 [2] was > 9.00.

For `CCCC(=O)O[C@H]1C[C@H]2OC[C@@]2(OC(C)=O)C2[C@H](OC(=O)c3ccccc3)[C@]3(O)C[C@H](OC(=O)[C@H](O)[C@@H](NC(=O)c4ccccc4)c4cccs4)C(C)=C([C@@H](O)C(=O)[C@@]21C)C3(C)C` (some centres unmarked) [Compound 4414], the pIC50 [1] was > 9.00.

`CCOC(=O)O[C@H]1C(=O)[C@@]2(C)C([C@H](OC(=O)c3ccccc3)[C@]3(O)C[C@H](OC(=O)[C@H](O)[C@@H](NC(=O)c4ccco4)c4cccs4)C(C)=C1C3(C)C)[C@]1(OC(C)=O)CO[C@@H]1C[C@@H]2O` (some centres unmarked) [Compound 3011] was tested, and the pIC50 [4] was > 9.00.

`COC(=O)O[C@H]1C[C@H]2OC[C@@]2(OC(C)=O)C2[C@H](OC(=O)c3ccccc3)[C@]3(O)C[C@H](OC(=O)[C@H](O)[C@@H](NC(=O)OCC(C)C)c4ccsc4)C(C)=C([C@@H](O)C(=O)[C@@]21C)C3(C)C` (some centres unmarked) [Compound 4674] was tested, and the pIC50 [4] was > 9.00.

For `CCC(=O)O[C@H]1C(=O)[C@@]2(C)C([C@H](OC(=O)c3ccccc3)[C@]3(O)C[C@H](OC(=O)[C@H](O)[C@@H](NC(=O)c4ccccc4)C4CCC4)C(C)=C1C3(C)C)[C@]1(OC(C)=O)CO[C@@H]1C[C@@H]2O` (some centres unmarked) [Compound 0720], the pIC50 [2] was > 8.00.

For `COC(=O)O[C@H]1C[C@H]2OC[C@@]2(OC(C)=O)C2[C@H](OC(=O)c3ccccc3)[C@]3(O)C[C@H](OC(=O)[C@H](O)[C@@H](NC(=O)c4cccs4)c4cccs4)C(C)=C([C@@H](O)C(=O)[C@@]21C)C3(C)C` (some centres unmarked) [Compound 4424], the pIC50 [4] was > 9.00.

In the case of `CCNC(=O)O[C@H]1C[C@H]2OC[C@@]2(OC(C)=O)C2[C@H](OC(=O)c3ccccc3)[C@]3(O)C[C@H](OC(=O)[C@H](O)[C@@H](NC(=O)OC(C)(C)C)c4ccco4)C(C)=C([C@@H](O)C(=O)[C@@]21C)C3(C)C` (some centres unmarked) [Compound 6696], the pIC50 (HCT116 cells, 72 h drug incubation, ID50 = drug concentration producing 50% inhibition of colony formation) was > 9.00.

For `CC(=O)OCC(=O)O[C@H]1C[C@H]2OC[C@@]2(OC(C)=O)C2[C@H](OC(=O)c3ccccc3)[C@]3(O)C[C@H](OC(=O)[C@H](O)[C@@H](NC(=O)C=C(C)C)c4ccco4)C(C)=C([C@@H](O)C(=O)[C@@]21C)C3(C)C` (some centres unmarked) [Compound 5544], the pIC50 [3] was > 9.00.

For `C/C=C/C(=O)O[C@H]1C(=O)[C@@]2(C)C([C@H](OC(=O)c3ccccc3)[C@]3(O)C[C@H](OC(=O)[C@H](O)[C@H](C=C(C)C)NC(=O)OC(C)(C)C)C(C)=C1C3(C)C)[C@]1(OC(C)=O)CO[C@@H]1C[C@@H]2O` (some centres unmarked) [Compound 2332], the pIC50 [2] was > 9.00.

For `CC(=O)OC12COC1CC(O)C1(C)C(=O)C(OC(=O)c3cccs3)C3=C(C)C(OC(=O)C(O)C(NC(=O)OC(C)(C)C)c4ccc([N+](=O)[O-])cc4)CC(O)(C(OC(=O)c4ccccc4)C21)C3(C)C` (centres unmarked) [Compound 1911], the pIC50 [2] was > 8.00.
